Source: article PMC5913645, “Methyl phenlactonoates are efficient strigolactone analogs with simple structure” (Journal of Experimental Botany, 2017)
Where two headings read alike, the source gives them in different places.

Legend:
OsD14 [1] = biological target: T1, OsD14 (Oryza sativa subsp. japonica, UniProt Q10QA5); experiment: In vitro hydrolysis assay, OsD14; type: biochemical, rice; settings: 10 µM substrate, 50 µg ml^−1 protein, 37 °C, HPLC
T1 construct: made in house; host or cells: E. coli BL21 (DE3)
T1 sequence (Q10QA5 1-318): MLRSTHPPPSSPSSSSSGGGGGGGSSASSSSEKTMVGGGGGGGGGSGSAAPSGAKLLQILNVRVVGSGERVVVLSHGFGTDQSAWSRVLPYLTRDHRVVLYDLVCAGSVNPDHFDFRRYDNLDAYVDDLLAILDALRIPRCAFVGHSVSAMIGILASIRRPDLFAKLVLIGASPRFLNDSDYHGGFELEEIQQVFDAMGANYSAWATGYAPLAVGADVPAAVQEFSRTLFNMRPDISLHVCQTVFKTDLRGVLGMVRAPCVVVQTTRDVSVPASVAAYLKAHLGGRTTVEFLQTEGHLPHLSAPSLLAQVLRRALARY
Excerpt: (§1) Striga hermonthica ShHTL7 cDNA was used, GenBank accession KR013127, kindly provided by Tsuyoshi Ota, The University of Tokyo, Japan. Arabidopsis D14 (AtD14) cDNA, GenBank accession AY097402, was synthesized and cloned into pUC57 (GenScript). ShHTL7 and OsD14 cDNAs were amplified by RT-PCR using the primers shown in Supplementary Table S2, digested with BamHI and XhoI, and ligated into BamHI/XhoI-digested pGEX-6P-1 expression vector (GE Healthcare). Integrity of plasmids was confirmed by sequencing (KAUST Bioscience Core Lab). The plasmids were then transformed into E. coli BL21 (DE3) cells. The cells were grown in LB broth containing ampicillin ([…]), incubated at 37 °C until OD600 of 0.6 and induced with 0.1 mM isopropyl-β-D-thiogalactopyranoside at 16 °C for 16 h. Harvested cells were resuspended in lysis buffer: 50 mM Tris–HCl (pH 8.0), 200 mM NaCl, 0.5% Tween-20 and 2 mM dithiothreitol (DTT). After sonication on ice for 10 min, the lysate was centrifuged at 75 000 g for 30 min at 4 °C. Supernatant was allowed to bind to glutathione–sepharose beads (GE Healthcare) for 2 h at 4 °C, washed 3 times with buffer (50 mM Tris-HCl (pH 8.0), 200 mM NaCl, 2 mM DTT), and eluted by cleaving the GST moiety with PreScission™ Protease (GE Healthcare) at 4 °C overnight. Eluted protein was further purified by gel filtration using a HiLoad 16/60 Superdex200 prep grade column (GE Healthcare) on an AKTA prime system (GE Healthcare) in gel filtration buffer (10 mM HEPES pH 7.5, 50 mM KCl and 2 mM DTT). Protein eluted as a sharp single peak and purity was judged by 4–15% SDS-PAGE (Bio-Rad). Purified protein was concentrated using an Amicon 10K filter unit (Merck Millipore) and stored at −80 °C until use. A similar expression and purification protocol was followed for OsD14 protein, except that OsD14 was eluted from glutathione resins using 0.2 mM reduced glutathione (Sigma-Aldrich) without cutting the GST tag.
The hydrolysis of GR24 and MPs by ShHTL7/OsD14 was performed in a total volume of 0.5 ml of phosphate-buffered saline containing 10 µM of substrate. Purified ShHTL7/OsD14 was added at a concentration of 50 µg ml^−1 and incubated for the indicated time at 37 °C. After adding 1-indanol (10 µl of a 2.5 mg ml^−1 solution in methanol), as internal standard, solutions were filtered and transferred to HPLC vials. Hydrolysis of substrates was monitored by HPLC analysis using a Zorbax Eclipse Plus C18 column (3.5 µm, 2.1 × 150 mm), eluted by a gradient from 10% to 90% acetonitrile in water within 15 min, keeping the final condition for 4 min. […] Eluted compounds were detected using a diode array detector. Amounts of remaining substrates were determined by calculating corresponding peaks, in comparison with an internal standard.

Arabidopsis seedlings = experiment: Arabidopsis primary root length; type: in vivo; settings: 1.0 μM
Description: Sterilized Arabidopsis seeds were sown on half-strength MS (with 0.5% sucrose+1% agar, 0.5 g l^−1 MES, pH 5.7) plates supplemented with GR24 or MPs (at 1.0 μM). Plates were stored at 4 °C in darkness for 3 d and then vertically grown at 22 °C in a Percival incubator under long day condition (16 h at 22 °C/8 h at 16 °C day/night, 60% relative humidity, 60–70 μmol m^−2 s^−1 white light) for 8 d. For determining the effect on lateral root density and primary root length, at least 30 seedlings were measured using ImageJ software after scanning roots.

S. hermonthica seeds = experiment: Striga hermonthica seed germination bioassay; type: in vivo; settings: for EC50: Striga hermonthica, concentrations 10^–5 to 10^–12 M
Description: Parasitic weed seeds’ (S. hermonthica and P. ramosa) germination activity was studied as described previously ([Jamil et al., 2012]). Six pre-conditioned seed discs were placed in a 90 mm Petri dish containing a filter paper ring wetted with 0.9 ml sterile MilliQ water. Then 50 μl of SL analog solution (10^–5–10^–12 M) was applied on each of the six discs, for each concentration. GR24 solutions with equal concentrations and sterile MilliQ water were included as a positive and negative control, respectively. After application, seeds of S. hermonthica and P. ramosa were incubated in dark at 30 °C for 2 d and at 25 °C for 4 d, respectively. Germination (seeds with radicle emerging through the seed coat) was scored under a binocular microscope, and germination rate (%) was calculated. Statistical analyses were carried out using the statistical software package R (version 3.2.2). Dose–response curves and half-maximum effective concentrations (EC50) were calculated to determine optimum amount of MPs. The synthetic strigolactone analog GR24 was used as reference to estimate efficacy of selected compounds. EC50 and estimated response were calculated using the drc package (https://cran.r-project.org/web/packages/drc/) with a four parameter logistic curve (dose–response curve) ([Ritz and Streibig, 2005]).

OsD14 [2] = biological target: T1, OsD14; experiment: Intrinsic tryptophan fluorescence assay, OsD14; type: binding, rice
Excerpt: as §1
ShHTL7/D14 tryptophans were excited at 280 nm and emission intensity was measured at 333 nm. ShHTL7/D14 (10 μM) was incubated at various dilutions (0.2, 0.4, 0.8, 1.6, 3.12, 6.25, 12.5, 25, and 50 μM) of GR24 and MPs for 30 min at room temperature before measurement. Each concentration point was measured in triplicate. Emitted fluorescence was monitored using a spectraMaxi3 plate reader (Molecular Devices) in 96-well black plates. Changes in tryptophan fluorescence intensity occur due to conformational changes in protein when it is bound to ligand; differences in fluorescence intensity were recorded and analysed. Data were normalized and dissociation coefficient (Kd) values were calculated by fitting to a binding saturation single-site model with Prism 6 (GraphPad).

[3] = 10 μM protein, 30 min, room temperature, read-out: Kd, OsD14

## COC(=O)/C(=C/OC1C=C(C)C(=O)O1)c1ccccc1 (centres unmarked) [MP3, (E)-methyl 3-(4-methyl-5-oxo-2,5-dihydrofuran-2-yloxy)-2-phenylacrylate]
OsD14 [1]
  hydrolysis rate by OsD14 (rank order): highest hydrolysis rate with MP1, followed by MP7, GR24, and finally MP3
Arabidopsis seedlings
  increase in primary root length: weaker activity than GR24 and MP8
S. hermonthica seeds
  EC50: 87 nM
OsD14 [2]; [3]
  Kd: 7.46 ± 0.53 µM

## COC(=O)/C(=C/OC1C=C(C)C(=O)O1)c1ccc(Cl)cc1 (centres unmarked) [MP7]
OsD14 [1]
  hydrolysis rate by OsD14 (rank order): highest hydrolysis rate with MP1, followed by MP7, GR24, and finally MP3
Arabidopsis seedlings
  increase in primary root length: more efficient than GR24
S. hermonthica seeds; species not given
  germination activity, order among the chlorophenyl compounds: highest germination activity with MP7 (Cl in para position) followed by MP9 (ortho position) and MP8 (meta position)
OsD14 [2]; [3]
  Kd: 8.74 ± 0.83 µM

## COC(=O)/C(=C/OC1C=C(C)C(=O)O1)c1ccc([N+](=O)[O-])cc1 (centres unmarked) [MP1, (E)-methyl 3-(4-methyl-5-oxo-2,5-dihydrofuran-2-yloxy)-2-(4-nitrophenyl)acrylate]
OsD14 [1]
  hydrolysis rate by OsD14 (rank order): highest hydrolysis rate with MP1, followed by MP7, GR24, and finally MP3
Arabidopsis seedlings
  increase in primary root length: most active compound
S. hermonthica seeds; 1.0 μM
  S. hermonthica germination rate: 75%
S. hermonthica seeds
  EC50: 1.5 nM
S. hermonthica seeds; from EC50 values
  Striga germination activity, times weaker than GR24: around 17 times
OsD14 [2]; [3]
  Kd: 3.52 ± 0.35 µM

## CC1=CC(OC=C2C(=O)OC3c4ccccc4CC23)OC1=O (centres unmarked) [GR24, reference compound]
OsD14 [1]
  hydrolysis rate by OsD14 (rank order): highest hydrolysis rate with MP1, followed by MP7, GR24, and finally MP3
S. hermonthica seeds
  EC50: 0.091 nM
OsD14 [2]
  Kd: 4.17 ± 0.32 µM
